{
  "source": "patent US20150050677A1",
  "about": "“METHODS AND SYSTEMS FOR MEASURING WHOLE BLOOD PLATELET REACTIVITY” (University of Massachusetts Medical School, priority 2013, published 2015)",
  "key": {"[1]": {"test_system": "ADP-induced platelet aggregation", "conditions": "P<0.0001", "experimental": "After collection of baseline blood samples but prior to coronary angiography, subjects were administered a loading dose of 300-600 mg clopidogrel. Percutaneous coronary intervention (PCI) was performed at the same time on an ad hoc basis at the discretion of the treating physician. Patients were excluded from further analysis if a glycoprotein IIb/IIIa antagonist was used during PCI.\nBlood samples were collected at baseline, prior to clopidogrel administration, and 6-24 hours later, after the catheterization procedure. After discarding the first 10 ml, blood was collected into siliconized glass vacutainers containing 3.2% sodium citrate (for platelet function testing and measurement of fibrinogen and vonWillebrand factor antigen) or EDTA-containing vacutainers (for complete blood counts). The samples were maintained at room temperature and hand-delivered to the laboratory where platelet function analyses were performed within 60 minutes of collection. Aliquots of centrifuged platelet-poor plasma and serum were stored at −70° C. until batch analyzed.\nCitrated blood was centrifuged to obtain platelet-rich plasma (PRP) and adjusted to a final platelet count of 180,000 mm^−3 as previously described. […]"}, "[2]": {"test_system": "ADP-induced platelet aggregation", "conditions": "for Number of subjects with clopidogrel HTPR by original PRU: post-clopidogrel"}, "[3]": {"test_system": "maximal platelet reactivity (iso-TRAP-induced platelet activation)", "conditions": "6-24 hours after 300-600 mg clopidogrel loading; pre-clopidogrel 279±47; p<0.0001; mean±SD"}, "[4]": {"test_system": "platelet reactivity (PRU)", "conditions": "PRU value >208; of the 3283 patients screened; cited from earlier work"}, "[5]": {"test_system": "platelet reactivity (PRU)", "conditions": "PRU≧235; of the 1213 patients in the assay-guided group; cited from earlier work"}},
  "note": "Like-named read-outs stand apart in the source and are kept apart here.",
  "data": [
    {"smiles": "COC(=O)[C@H](c1ccccc1Cl)N1CCc2sccc2C1", "note": "[clopidogrel]", "values": [
      {"measurement": "median aggregation by WBA after clopidogrel loading", "setting": "[1]; 10 μM ADP, fell from 16 (IQR;11,24)", "value": "4 (IQR; 0,12) ohms"},
      {"measurement": "median aggregation by LTA after clopidogrel loading", "setting": "[1]; 20 μM ADP, fell from 84 (IQR;71, 94)", "value": "52 (IQR;37,70) percent"},
      {"measurement": "mean VerifyNow PRU following clopidogrel loading", "setting": "[2]; 6-24 hours after 300-600 mg clopidogrel loading, pre-clopidogrel 287±56, p<0.0001, mean±SD", "value": "179±90", "unit": "PRU"},
      {"measurement": "Number of subjects with clopidogrel HTPR by Corrected PRU", "setting": "[2]; PRU threshold ≧178, PRU corrected for hematocrit (7.5 PRU per percent around 42%)", "value": "46 (48%) subjects (%)"},
      {"measurement": "Number of subjects with clopidogrel HTPR by original PRU", "setting": "[2]; PRU threshold ≧178", "value": "50 (51%) subjects (%)"},
      {"measurement": "Number of subjects with clopidogrel HTPR by Corrected PRU", "setting": "[2]; PRU threshold ≧208, PRU corrected for hematocrit", "value": "33 (34%) subjects (%)"},
      {"measurement": "Number of subjects with clopidogrel HTPR by original PRU", "setting": "[2]; PRU threshold ≧208", "value": "39 (40%) subjects (%)"},
      {"measurement": "Number of subjects with clopidogrel HTPR by Corrected PRU", "setting": "[2]; PRU threshold ≧230, PRU corrected for hematocrit", "value": "21 (22%) subjects (%)"},
      {"measurement": "Number of subjects with clopidogrel HTPR by original PRU", "setting": "[2]; PRU threshold ≧230", "value": "31 (32%) subjects (%)"},
      {"measurement": "Number of subjects with clopidogrel HTPR by Corrected PRU", "setting": "[2]; PRU threshold ≧235, PRU corrected for hematocrit", "value": "19 (20%) subjects (%)"},
      {"measurement": "Number of subjects with clopidogrel HTPR by original PRU", "setting": "[2]; PRU threshold ≧235", "value": "30 (31%) subjects (%)"},
      {"measurement": "Number of subjects with clopidogrel HTPR by Corrected PRU", "setting": "[2]; PRU threshold ≧236, PRU corrected for hematocrit", "value": "18 (19%) subjects (%)"},
      {"measurement": "Number of subjects with clopidogrel HTPR by original PRU", "setting": "[2]; PRU threshold ≧236", "value": "30 (31%) subjects (%)"},
      {"measurement": "change in PRU following clopidogrel loading (mean PRU)", "setting": "[2]; subjects with anemia", "value": "106±89", "unit": "PRU"},
      {"measurement": "change in PRU following clopidogrel loading (mean PRU)", "setting": "[2]; subjects without anemia, p=0.96 vs anemia", "value": "107±85", "unit": "PRU"},
      {"measurement": "mean BASE following clopidogrel loading", "setting": "[3]", "value": "298±53", "unit": "Base units"},
      {"measurement": "patients classified as having HTPR", "setting": "[4]", "value": 625, "unit": "patients"},
      {"measurement": "patients with clopidogrel HTPR", "setting": "[5]", "value": "419 (35%) patients (%)"}
    ]}
  ]
}
